Source: US7452997B2 (priority 2004, dated 2008)
Read-outs that look alike come from different tables or passages of the source.

Legend:
human CB2 receptor [1] = biological target: T1, human CB2 receptor (Homo sapiens, UniProt P34972); assay: Binding assay, cannabinoid CB2 receptor ([3H]-CP-55,940 displacement); conditions: Cannabinoid CB2 Receptor Binding IC50, human CB2 receptor, SK-N-MC cell membranes, radioligand CP-55,940 0.2 nM
Procedure, shortened: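 Membranes from SK-N-MC cells stably expressing human CB2, incubated with test compound and 0.2 nM [3H]-CP-55,940 for 90 min at 30 °C in Tris buffer pH 7.5 with fatty-acid-free BSA. Nonspecific binding defined with 10 uM WIN 55,212; filtration and scintillation counting, IC50 by linear regression.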

human CB2 receptor [2] = biological target: T1, human CB2 receptor; assay: Functional cell-based assay, CB2 receptor mediated change in CRE β-gal expression (agonist / inverse agonist); conditions: SK-N-MC cells, forskolin
Description: Functional Cell-Based Assay for CB1 or CB2 Agonist and Inverse Agonist Effects on Intra-Cellular Adenylate Cyclase Activity
The CB1 and CB2 receptors are G-protein coupled receptors (GPCR) which influence cell function via the Gi-protein. These receptors modulate the activity of intracellular adenylate cyclase which in turn produces the intracellular signal messenger cyclic-AMP (cAMP).
At baseline, or during non-ligand bound conditions, these receptors are constitutively active and tonically suppress adenylate cyclase activity. The binding of an agonists causes further receptor activation and produces additional suppression of adenylate cyclase activity. The binding of an inverse agonist inhibits the constitutive activity of the receptors and results in an increase in adenylate cyclase activity.
By monitoring intracellular adenylate cyclase activity, the ability of compounds to act as agonists or inverse agonists can be determined.
Test compounds were evaluated in SK-N-MC cells which, using standard transfection procedures, were stably transfected with human cDNA for pcDNA3-CRE β-gal and pcDNA3 CB1 receptor (human) or pcDNA3 CB2 receptor (human). By expressing CRE β-gal, the cells produced β-galactosidase in response to CRE promoter activation by cAMP. Cells expressing CRE β-gal and either the human CB1 or CB2 receptor will produce less β-galactosidase when treated with a CB1/CB2 agonist and will produce more β-galactosidase when treated with a CB1/CB2 inverse agonist.
The cells were grown in 96-well plates under standard cell culture conditions at 37° C. in a 5% CO2 atmosphere. After 3 days, the media was removed and a test compound in media (wherein the media was supplemented with 2 mM L-glutamine, […] sodium pyruvate, 0.1% low fatty acid FBS (fetal bovine serum) and antibiotics) was added to the cell. The plates were incubated for 30 minutes at 37° C. and the plate cells were then treated with forskolin over a 4-6 hour period, then washed and lysed. The β-galactosidase activity was quantitated using commercially available kit reagents (Promega Corp. Madison, Wis.) and a VMAX Plate Reader (Molecular Devices, Inc).
For cells expressing CRE β-gal and the CB2 receptor, CB2 agonists reduced β-galactosidase activity in a dose-dependent manner and CB2 inverse agonists increased β-galactosidase activity in a dose-dependent manner.
The change in β-galactosidase activity was determined by setting a vehicle treated cell's activity value at 100% and expressing the β-galactosidase activity measured in a corresponding compound treated cell as a percent of the vehicle treated cell activity.
The EC50 values for compounds tested were calculated by linear regression and were obtained from studies in which varying compound concentrations were used.

human CB1 receptor = biological target: T2, human CB1 receptor (Homo sapiens, UniProt P21554); assay: biochemical; assay type: binding
T2 construct: expressed in transfected cells; host or cells: SK-N-MC cells, stably transfected with pcDNA3 CB-1 (human); semi-purified membrane pellet
Procedure, shortened: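 Membranes from SK-N-MC cells stably expressing human CB1, incubated 90 minutes at 30° C in Tris-HCl buffer with MgCl2, EDTA and fatty acid free BSA, pH 7.5. Bound counts collected by filtration and scintillation counting; IC50 from linear regression over varying compound concentrations.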

[3] = inverse agonist, read-out: CB2 Receptor Functional Inverse Agonist EC50
[4] = agonist, read-out: CB2 Receptor Functional Agonist EC50

T1 sequence (P34972 whole entry): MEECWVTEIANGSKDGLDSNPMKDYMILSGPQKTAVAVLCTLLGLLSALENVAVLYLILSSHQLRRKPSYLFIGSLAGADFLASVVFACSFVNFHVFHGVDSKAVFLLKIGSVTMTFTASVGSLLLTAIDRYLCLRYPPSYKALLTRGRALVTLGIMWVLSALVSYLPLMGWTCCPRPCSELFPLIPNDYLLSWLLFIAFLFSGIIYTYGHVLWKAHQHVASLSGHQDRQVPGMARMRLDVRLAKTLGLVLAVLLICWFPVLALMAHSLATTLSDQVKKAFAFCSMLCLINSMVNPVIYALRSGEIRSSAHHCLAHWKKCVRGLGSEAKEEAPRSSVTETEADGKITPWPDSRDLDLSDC
T2 sequence (P21554 whole entry): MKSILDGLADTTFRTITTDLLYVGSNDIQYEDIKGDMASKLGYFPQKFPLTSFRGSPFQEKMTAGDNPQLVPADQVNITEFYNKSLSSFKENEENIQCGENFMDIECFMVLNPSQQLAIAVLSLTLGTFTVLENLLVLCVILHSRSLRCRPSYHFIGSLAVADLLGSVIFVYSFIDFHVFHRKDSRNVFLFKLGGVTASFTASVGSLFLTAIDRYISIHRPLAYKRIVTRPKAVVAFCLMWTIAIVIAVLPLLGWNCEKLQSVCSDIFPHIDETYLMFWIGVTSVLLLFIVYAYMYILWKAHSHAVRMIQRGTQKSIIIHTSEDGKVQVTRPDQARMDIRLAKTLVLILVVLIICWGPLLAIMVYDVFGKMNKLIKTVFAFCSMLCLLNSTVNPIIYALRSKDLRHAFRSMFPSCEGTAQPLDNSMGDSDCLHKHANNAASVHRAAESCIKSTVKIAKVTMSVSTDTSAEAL

Compound | IC50 (human CB2 receptor [1]) [µM] | EC50 (human CB2 receptor [2]; [3]) [µM] | IC50 (human CB1 receptor) [µM] | EC50 (human CB2 receptor [2]; [4]) [µM]
CCOC(=O)[C@H]1CCc2c(c(C(=O)NC3C4CC5CC(C4)CC3C5)nn2C2CCCCC2)C1 (stereo partly drawn) [Cpd 208, (5S)-3-(adamantan-2-ylcarbamoyl)-1-cyclohexyl-4,5,6,7-tetrahydro-1H-indazole-5-carboxylic acid ethyl ester] | 0.014 | 0.0086 | 0.66 | –
CCOC(=O)[C@@H]1CCc2c(c(C(=O)NC3C4CC5CC(C4)CC3C5)nn2C2CCCCC2)C1 (stereo partly drawn) [Cpd 209, (5R)-3-(adamantan-2-ylcarbamoyl)-1-cyclohexyl-4,5,6,7-tetrahydro-1H-indazole-5-carboxylic acid ethyl ester] | 0.2 | 0.074 | 0.26 | –
CC12CCC(C1)C(C)(C)C2NC(=O)c1nn(-c2ccccc2)c2c1CCCC2 (centres unmarked) [compound 1] | 0.0135 | – | 0.377 | 0.015
COC(=O)C(Cc1cccc(OCc2ccccc2)c1)NC(=O)c1nn(-c2ccc(OC)cc2)c2c1CCCC2 (centres unmarked) [compound 3] | 0.428 | 0.19 | – | –
CC12CCC(C1)C(C)(C)C2NC(=O)c1nn(-c2ccc(F)cc2)c2c1CCCC2 (centres unmarked) [compound 10] | 0.006 | – | 0.045 | 0.0019
CC1CCCc2c(C(=O)NC3C4(C)CCC(C4)C3(C)C)nn(-c3ccc(F)cc3)c21 (centres unmarked) [compound 13] | 0.0065 | – | 0.108 | 0.0041
CC12CCC(C1)C(C)(C)C2NC(=O)c1nn(-c2cccc(F)c2)c2c1CCCC2 (centres unmarked) [compound 18] | 0.0036 | – | 0.0918 | 0.0027
CC(NC(=O)c1nn(C2CCCCC2)c2c1CCCC2)C12CC3CC(CC(C3)C1)C2 (centres unmarked) [compound 26] | 0.015 | – | 0.723 | 0.011
O=C(NCC12CC3CC(CC(C3)C1)C2)c1nn(C2CCCCC2)c2c1CCCC2 [compound 32] | 0.0069 | – | 0.02 | 0.047
O=C(NN1CCCCCC1)c1nn(-c2ccc(F)cc2)c2c1CCCC2 [compound 35] | 0.094 | – | 0.7 | 0.035
CCOC(=O)[C@@H]1CCCC[C@@H]1NC(=O)c1nn(C2CCCCC2)c2c1CCCC2 [compound 36] | 0.0128 | – | 0.105 | 0.005
O=C(NN1CCCCCC1)c1nn(C2CCCCC2)c2c1CCCC2 [compound 37] | 0.112 | – | 0.0693 | 0.01
O=C(NC1C2CCC(C2)C1CO)c1nn(C2CCCCC2)c2c1CCCC2 (centres unmarked) [compound 40] | 0.215 | – | 1.44 | 0.031
O=C(NC12CC3CC(CC(C3)C1)C2)c1nn(C2CCCCC2)c2c1CCCC2 [compound 44] | 0.0024 | – | 0.079 | 0.029
O=C(NC1C2CC3CC(C2)CC1C3)c1nn(C2CCCCC2)c2c1CCCC2Cl (centres unmarked) [compound 62] | 0.005 | – | 0.28 | 0.00057
COC(=O)C(Cc1ccc(O)cc1)NC(=O)c1nn(Cc2ccccc2)c2c1CCCC2 (centres unmarked) [compound 75] | 0.0007 | – | 0.0237 | 0.0001
O=C(NC1C2CC3CC(C2)CC1C3)c1nn(C2CCCCC2)c2c1CC(NC(=O)C(F)(F)F)CC2 (centres unmarked) [compound 87] | 0.0266 | – | 0.855 | 0.25
CC(=O)OC1CCc2c(c(C(=O)NC3C4(C)CCC(C4)C3(C)C)nn2C2CCCCC2)C1 (centres unmarked) [compound 94] | 0.02 | – | 1.78 | 0.025
CCOC(=O)C1CCc2c(c(C(=O)NC(C)C34CC5CC(CC(C5)C3)C4)nn2-c2ccccc2)C1 (centres unmarked) [compound 116] | 0.99 | 0.5 | – | –
O=C(NC1C2CC3CC(C2)CC1C3)c1nn(CC2CCCCC2)c2c1CCCC2 (centres unmarked) [compound 122] | 0.0015 | – | 0.004 | 0.037
CC(NC(=O)c1nn(CC2CCCCC2)c2c1CCCC2)C12CC3CC(CC(C3)C1)C2 (centres unmarked) [compound 123] | 0.0046 | – | 0.0075 | 0.0075
CCOC(=O)C1CCc2c(c(C(=O)NC3C4(C)CCC(C4)C3(C)C)nn2Cc2ccccc2)C1 (centres unmarked) [compound 149] | 0.008 | 0.0079 | 0.067 | –

Compound | IC50 (human CB2 receptor [1]) [µM] | EC50 (human CB2 receptor [2]; [3]) [µM] | IC50 (human CB1 receptor) [µM] | EC50 (human CB2 receptor [2]; [4]) [µM]
CCOC(=O)[C@H]1C2CCC(C2)[C@H]1NC(=O)c1nn(-c2ccc(F)cc2)c2c1CCCC2CCc1ccccc1 (some centres unmarked) [compound 154] | 0.37 | – | 0.06 | 0.009
CCOC(=O)C1CCc2c(C(=O)NCC34CC5CC(CC(C5)C3)C4)nn(Cc3ccccc3)c2C1 (centres unmarked) [compound 156] | 0.002 | 0.035 | 0.097 | –
CCOC(=O)C1CCc2c(C(=O)NC34CC5CC(CC3C5)C4)nn(Cc3ccccc3)c2C1 (centres unmarked) [compound 157] | 0.002 | 0.0015 | 0.03 | –
CC(NC(=O)c1nn(C2CCCCC2)c2c1CCCC2)C1CCCCC1 (centres unmarked) [compound 184] | 0.02 | – | 0.05 | 0.1
C[C@@H](NC(=O)c1nn(C2CCCCC2)c2c1CCCC2)C1CCCCC1 [compound 195] | 0.02 | – | 0.1 | 0.0055
CC12CCC(C1)C(C)(C)[C@H]2NC(=O)c1nn(C2CCCCC2)c2c1CCCC2 (some centres unmarked) [compound 207] | 0.0016 | – | 0.0824 | 0.01
CCOC(=O)[C@@H]1CCc2c(c(C(=O)NC3C4CC5CC(C4)CC3C5)nn2Cc2ccccc2)C1 (some centres unmarked) [compound 211] | 0.0007 | 0.016 | 0.005 | –
C[C@@H](NC(=O)c1nn(C2CCCCC2)c2c1CCCC2)C12CC3CC(CC(C3)C1)C2 [compound 212] | 0.074 | – | 0.26 | 0.0037
CCOC(=O)[C@H]1CCc2c(c(C(=O)NC(C)C34CC5CC(CC(C5)C3)C4)nn2C2CCCCC2)C1 (some centres unmarked) [compound 215] | 0.2 | 0.22 | – | –
COC(=O)C1CCc2c(c(C(=O)NC3C4CC5CC(C4)CC3C5)nn2C2CCCCC2)C1 (centres unmarked) [compound 231] | – | 0.035 | 0.638 | –
CCOC(=O)C1CCc2c(c(C(=O)N[C@H](C)C3CCCCC3)nn2C2CCCCC2)C1 (some centres unmarked) [compound 251] | 0.0028 | 0.023 | – | –
CCOC(=O)[C@@H]1C2C=CC(C2)[C@@H]1NC(=O)c1nn(C2CCCCC2)c2c1CCCC2 (some centres unmarked) [compound 280] | 0.679 | – | 3.6 | –
CCOC(=O)[C@H]1C2CCC(C2)[C@H]1NC(=O)C(C)(C)Cc1nn(C2CCCCC2)c2c1CCCC2 (some centres unmarked) [compound 281] | 16.5 | – | 19.7 | –
CCOC(=O)[C@H]1C2CCC(C2)[C@H]1NC(=O)c1nn(C2CCCCC2)c2c1CCCC2OC (some centres unmarked) [compound 282] | 3.8 | – | 11.8 | –
CC(NC(=O)c1nn(-c2ccc(Cl)cc2Cl)c2c1CCCC2)C12CC3CC(CC(C3)C1)C2 (centres unmarked) [compound 283] | 0.1 | – | 0.1 | –
CCOC(=O)C1CCCc2c1c(C(=O)N[C@H](C)C1CCCCC1)nn2C1CCCCC1 (some centres unmarked) [compound 285] | 2.4 | – | 2.9 | –
O=C(NN1CCCCC1)c1nn(-c2ccc(Cl)cc2Cl)c2c1CCCC2 [compound 287] | 2.1 | – | 2.5 | –
CCOC(=O)C1CCc2c(c(C(=O)N[C@H](C)C3CCCCC3)nn2Cc2ccccc2)C1 (some centres unmarked) [compound 289] | 0.4 | – | 0.88 | –
CCOC(=O)C1CC=CCC1NC(=O)c1nn(C2CCCCC2)c2c1CCCC2 (centres unmarked) [compound 301] | 0.033 | – | 0.024 | –
CC(C)N(C(=O)c1nn(C2CCCCC2)c2c1CCCC2)[C@H](C)C1CCCCC1 [compound 329] | 0.02 | – | 1.7 | –
CC(CC1CCCCC1)NC(=O)c1nn(C2CCCCC2)c2c1CCCC2 (centres unmarked) [compound 330] | 0.03 | – | 1.9 | –
CC(NC(=O)Nc1nn(C2CCCCC2)c2c1CCCC2)C1CCCCC1 (centres unmarked) [compound 334] | 0.98 | – | 12.5 | –
